Measurements from ChEMBL document CHEMBL5390201, “The Natural Alkaloid (-)-N-Hydroxyapiosporamide Suppresses Colorectal Tumor Progression as an NF-κB Pathway Inhibitor by Targeting the TAK1-TRAF6 Complex” (J Nat Prod, 2023).
The source made the active and inactive calls. The rule behind the calls is not given here.

Legend:
HCT-116 [1] = test: Induction of apoptosis in human HCT-116 cells assessed as early apoptotic cells at 0.25 uM incubated for 24 hrs by Annexin V-FITC/PI staining based flow cytometric analysis (reference value: 7.22 %); type: functional
HCT-116 [2] = test: Cytotoxicity against human HCT-116 cells assessed as inhibition of cell growth incubated for 24 hrs by SRB assay; type: functional, cell-based; settings: HCT-116, 24 h
[3] = biological target: Nuclear factor NF-kappa-B complex (Homo sapiens) (UniProt Q00653+P19838+Q04206); test: Inhibition of NFkappaB activation in HEK293T cells transfected with HA-tagged TAB2 and kappaB luciferase/pTK-renilla reporters at 2 uM incubated for 6 hrs by Dual Luciferase Reporter Assay; type: cell-based; settings: HEK-293T
Sequence of Nuclear factor NF-kappa-B complex (Homo sapiens) (P19838 whole entry, looked up): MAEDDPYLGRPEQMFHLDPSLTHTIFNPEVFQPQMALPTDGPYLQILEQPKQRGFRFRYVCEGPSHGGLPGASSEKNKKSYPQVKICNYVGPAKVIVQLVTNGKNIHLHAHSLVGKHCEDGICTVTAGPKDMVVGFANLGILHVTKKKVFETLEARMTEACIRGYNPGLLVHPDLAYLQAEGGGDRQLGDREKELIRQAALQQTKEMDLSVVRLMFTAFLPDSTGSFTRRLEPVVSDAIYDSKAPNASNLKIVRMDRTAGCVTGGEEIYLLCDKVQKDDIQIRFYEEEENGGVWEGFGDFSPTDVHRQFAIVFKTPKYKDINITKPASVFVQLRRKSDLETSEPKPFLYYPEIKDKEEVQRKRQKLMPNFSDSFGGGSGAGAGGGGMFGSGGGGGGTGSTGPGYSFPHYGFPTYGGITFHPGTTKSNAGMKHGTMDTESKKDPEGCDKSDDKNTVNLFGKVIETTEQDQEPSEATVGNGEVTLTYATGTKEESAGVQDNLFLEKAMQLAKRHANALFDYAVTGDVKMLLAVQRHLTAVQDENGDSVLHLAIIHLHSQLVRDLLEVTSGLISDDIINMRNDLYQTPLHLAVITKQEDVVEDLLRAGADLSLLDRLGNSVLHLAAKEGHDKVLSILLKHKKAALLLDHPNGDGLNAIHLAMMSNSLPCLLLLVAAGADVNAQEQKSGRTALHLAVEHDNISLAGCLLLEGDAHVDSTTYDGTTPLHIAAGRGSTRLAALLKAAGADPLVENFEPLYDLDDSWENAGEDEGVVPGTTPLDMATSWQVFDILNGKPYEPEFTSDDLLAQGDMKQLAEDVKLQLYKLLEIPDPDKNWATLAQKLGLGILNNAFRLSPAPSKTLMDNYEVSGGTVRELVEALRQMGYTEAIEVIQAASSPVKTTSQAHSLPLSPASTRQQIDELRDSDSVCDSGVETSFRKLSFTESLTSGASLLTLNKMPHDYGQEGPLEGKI
Sequence of Nuclear factor NF-kappa-B complex (Homo sapiens) (Q00653 whole entry, looked up): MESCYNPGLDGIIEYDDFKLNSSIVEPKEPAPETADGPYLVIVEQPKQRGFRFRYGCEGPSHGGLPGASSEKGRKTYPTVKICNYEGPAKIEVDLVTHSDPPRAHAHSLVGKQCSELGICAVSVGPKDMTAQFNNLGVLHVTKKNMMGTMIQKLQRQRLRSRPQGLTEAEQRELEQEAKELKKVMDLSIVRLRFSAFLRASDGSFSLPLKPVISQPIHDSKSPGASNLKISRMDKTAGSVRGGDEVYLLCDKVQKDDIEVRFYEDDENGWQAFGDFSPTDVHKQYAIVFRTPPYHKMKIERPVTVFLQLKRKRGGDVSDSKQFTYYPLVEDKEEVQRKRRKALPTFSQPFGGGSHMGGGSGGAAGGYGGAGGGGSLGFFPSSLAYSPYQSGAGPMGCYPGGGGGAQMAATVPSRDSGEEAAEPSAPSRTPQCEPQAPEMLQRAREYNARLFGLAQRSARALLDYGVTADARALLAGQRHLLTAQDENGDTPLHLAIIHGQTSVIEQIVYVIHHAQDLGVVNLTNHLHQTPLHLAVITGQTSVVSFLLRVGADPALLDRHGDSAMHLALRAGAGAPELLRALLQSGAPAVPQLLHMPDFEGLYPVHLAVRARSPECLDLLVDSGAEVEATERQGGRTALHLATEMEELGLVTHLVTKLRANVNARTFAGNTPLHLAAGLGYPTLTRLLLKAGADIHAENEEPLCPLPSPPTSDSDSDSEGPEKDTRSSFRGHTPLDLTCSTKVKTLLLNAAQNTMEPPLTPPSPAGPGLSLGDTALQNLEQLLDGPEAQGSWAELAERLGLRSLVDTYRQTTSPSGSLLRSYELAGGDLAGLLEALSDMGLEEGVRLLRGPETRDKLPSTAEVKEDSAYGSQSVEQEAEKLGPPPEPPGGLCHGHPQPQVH
Sequence of Nuclear factor NF-kappa-B complex (Homo sapiens) (Q04206 whole entry, looked up): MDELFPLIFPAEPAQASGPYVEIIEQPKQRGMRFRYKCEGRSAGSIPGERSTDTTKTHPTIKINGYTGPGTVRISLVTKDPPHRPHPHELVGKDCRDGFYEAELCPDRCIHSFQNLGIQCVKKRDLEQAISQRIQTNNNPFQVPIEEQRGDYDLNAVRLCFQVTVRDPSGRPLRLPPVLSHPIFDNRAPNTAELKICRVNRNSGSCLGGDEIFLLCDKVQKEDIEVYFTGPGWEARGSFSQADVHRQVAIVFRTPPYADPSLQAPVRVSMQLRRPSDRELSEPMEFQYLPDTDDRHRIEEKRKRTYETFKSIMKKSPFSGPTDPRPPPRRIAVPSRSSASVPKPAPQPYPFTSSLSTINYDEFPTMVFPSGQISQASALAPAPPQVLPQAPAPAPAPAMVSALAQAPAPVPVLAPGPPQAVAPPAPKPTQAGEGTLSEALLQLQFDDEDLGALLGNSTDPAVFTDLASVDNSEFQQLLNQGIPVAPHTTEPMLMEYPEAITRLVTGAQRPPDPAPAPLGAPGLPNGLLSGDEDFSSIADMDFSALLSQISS

With `C[C@@H]1CC[C@H]2[C@H](C(=O)c3c(O)c([C@@]4(O)CC[C@@H](O)[C@H]5O[C@H]54)cn(O)c3=O)[C@H](C)C=C[C@@H]2C1` the Activity (HCT-116 [1]) was 8.93%, the IC50 (HCT-116 [2]) was 2800 nM and the inhibition [3] was “Active”.
